Read-outs that look alike come from different tables or passages of the source.

Assay [1] has as its system Chinese hamster ovary (CHO) cells. The assay is described as follows: Protein translation assay (puromycin labelling, CHO cells). The settings on record: media alone = 100%; for activity at 1 µM: Cricetulus griseus, CHO. The class given is cell-based. The procedure, abridged:
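CHO cells given compound 2 h at 1 μM (unstressed), or 1 h at 100 nM or 1 μM then co-treated with 300 nM Tg (stressed); 10 μg/ml puromycin pulse 30 min, anti-puromycin western blot with β-actin, densitometry. Normalized to media alone (100%) and, for stressed cells, Tg alone (0%).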

The subject of assay [2] is ATF4. As to the kind of experiment: ATF4 expression inhibition assay (ATF4 5'UTR luciferase reporter, Tg-stressed HEK293T cells). In kind it is cell-based, human. The settings on record: 100 nM thapsigargin, 3 hours, HEK293T ATF4 luciferase reporter; for IC50: read-out: ATF4 inhbition IC50. Summed up:
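HEK293T stably expressing luciferase fused downstream of human full-length ATF4 5′UTR, stressed with 100 nM thapsigargin plus compound (100 nM or 1 μM; IC50 series 0.1 nM to 1 μM) for 3 h at 37° C. Luminescence normalized to Tg alone (0%) and untreated cells (100% inhibition).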

The test system of assay [3] is HEK293T cells. The assay is described as follows: Recovery of protein translation in stressed HEK293T cells. In kind it is cell-based, human. The text has this:
Despite the great potency on the inhibition of ATF4 expression, ISRIB is not able to completely restore protein synthesis when the global protein translation is decreased under these stress conditions. […] Compound 4 has a great potency for the inhibition of ATF4 expression under stress condition (FIG. 3) and is much better at restoring global protein translation under ER stress-mediated repression and going beyond a 100% recovery (FIG. 4).

The subject of assay [4] is hippocampal slices from transgenic APP/PS1 mice. The assay is described as follows: Electrophysiology and long-term potentiation in hippocampal slices. The settings on record: slices from APP/PS1 mouse, 5 μM, 20 min before stimulation (FIGS. 5A, 5B). As to the method: Hippocampal slices were prepared as described in Ardiles et al., Pannexin 1 regulates bidirectional hippocampal synaptic plasticity in adult mice. Front Cell Neurosci, vol. 8, art. 326 (2014). Six to nine-month-old WT C57BL/6 or transgenic APP/PS1 mice (Jackson Lab 34829-JAX) were deeply anesthetized with isoflurane and their brains were quickly removed. 5-10 slices (350 μm) from each animal were dissected in ice-cold dissection buffer using a vibratome (Leica VT1200S, Leica Microsystems, Nussloch, Germany). Slices were incubated with 5 μM ISRIB (trans-N,N′-1,4-cyclohexanediylbis[2-(4-chlorophenoxy)-acetamide) or a vehicle (complete medium containing 0.1% DMSO) 20 min before conditioning stimulation. Synaptic responses were evoked by stimulating the Schaffer collaterals with 0.2 ms pulses delivered through concentric bipolar stimulating electrodes, and recorded extracellularly in the stratum radiatum of the CA1 subfield. Long-term potentiation (LTP) was induced by four-theta burst stimulation (TBS) (10 trains of four pulses at 100 Hz; 5 Hz inter-burst interval) delivered at 0.1 Hz. LTP magnitude based on field excitatory postsynaptic potential (fEPSP) was calculated as the average (normalized to baseline) of the responses recorded 60 min after conditioning stimulation. Similar experiments can be performed using a test compound in place of ISRIB.

With `O=C(COc1ccc(Cl)c(F)c1)NC1CCN(NC(=O)COc2ccc(Cl)c(F)c2)CC1` [Compound 4, N,N′-(piperidine-1,4-diyl)bis(2-(4-chloro-3-fluorophenoxy)acetamide)], in assay [1] (CHO cells stressed with 300 nM Tg, 100 nM compound, Tg alone = 0%), the “% Recovery of protein expression (100 nM test compound)” value was 83.5%. Moreover, the activity at 1 µM in assay [1] (2 h, unstressed CHO cells, 1 μM, 2 hours, read-out: % Protein synthesis in unstressed cells (1 μM test compound)) was determined as 105%; in assay [1] (CHO cells stressed with 300 nM Tg, 1 μM compound, Tg alone = 0%, read-out: % Recovery of protein expression (1 μM test compound)), 169%. For the same compound, the inhibition at 0.1 µM in assay [2] (Homo sapiens, HEK-293T, 3 h, 100 nM test compound, read-out: % ATF4 inhibition at 100 nM) came out at 93.2%. In addition, the IC50 in assay [2] (Homo sapiens, HEK-293T, 3 h) was determined as 3.1 nM. Besides, the inhibition at 1 µM in assay [2] (Homo sapiens, HEK-293T, 3 h, 1 μM test compound, read-out: % ATF4 inhibition at 1 μM) came to 94.7%. In assay [3] (1 μM (FIG. 4)), the “percent recovery of protein translation in stressed cells” value is over 100%.
Consider `O=C(COc1ccc(Cl)cc1)N[C@H]1CC[C@H](NC(=O)COc2ccc(Cl)cc2)CC1` [ISRIB, reference compound], for which the “long-term potentiation (LTP, fEPSP slope) 60 min after theta burst stimulation” value in assay [4] is on record as “partial LTP recovery”. Also, the IC50 in assay [2] was determined as 5 nM. For the same compound, the “restoration of protein translation in stressed cells” value in assay [3] (up to 200-fold its IC50 value (FIG. 2)) is reported as “only partially restores protein translation”.

Broadly, the inhibition is the change of the read-out against control, counted positive when it falls. The IC50 is the point on the concentration scale where inhibition reaches its midpoint.

The values are drawn from patent US11166942B2 (PRAXIS BIOTECH LLC, priority 2018, dated 2021).
